This note sets out measurements from US20090286836A1, “Novel Compounds” (priority 2008, published 2009).

In one assay the target is T1, NK1 receptor (Meriones unguiculatus, UniProt Q5DUB1).
T1 construct: from tissue; host or cells: living gerbils; central nervous system (icv agonist GR73632)
Nature of the assay: gerbil foot tapping model (GR73632-induced, icv). The class given is in vivo. The text has this: The ability of the compounds of the invention to penetrate the central nervous system and to bind at the NK1 receptor may be determined using the gerbil foot tapping model as described by Rupniak & Williams, Eur. Jour. of Pharmacol., 1994. Intracerebroventricular (icv) administration of the NK1 receptor agonist GR73632 (R. M. Hagan et al., Neuropeptides 1991, 19 (2), 127-135) a characteristic hind leg foot tapping (GFT) response in gerbils which can be inhibited by potent NK1 receptor antagonists. The gerbil foot tapping paradigm was carried out as follows; gerbils were dosed with compound of the invention, and following an appropriate pre-treatment time were anaesthetised using isofluorane/oxygen mixture. The skull was then exposed and 5 ul of GR73632 ([…].) was injected by insertion of a cuffed 25G needle to a depth of 4 mm below bregma, directly into the lateral ventricle (intracerebroventricular dosing). Immediately following the injection, gerbils were placed individually into a clear observation box to recover.
Upon the gerbil regaining its righting reflex, the duration of repetitive hind foot tapping was recorded over a 5 minute period. The dose of the test compound required to inhibit by 50% the tapping induced by the NK1 agonist expressed as mg/kg is referred to as the ID50 values.

The target in the next assay is human NK1 receptor (Homo sapiens, UniProt P25103). Kind of assay: NK functional potency, FLIPR calcium release in U2OS cells (Substance P as ligand). The class given is cell-based. Details: expressed in transfected cells; host or cells: human U2OS cells transiently transduced with recombinant BacMam virus. To be noted: BacMam human NK1, average of at least two determinations, read-out: NK1 pKi (functional potency, fpKi) (converted). The text has this: (§1) Compounds of the invention were further characterised in a functional assay using FLIPR technology for the determination of their effect to inhibit the intracellular calcium release induced by interaction of NK receptors with its perspective ligands. Human U2OS cells transiently transduced with recombinant BacMam virus expressing human NK1, NK2 and NK3 receptors were used in the studies (see J. P. Condreay et al, Proc. Natl. Acad. Sci. USA 1999, 96(1): 127-132). Briefly, U2OS cells were harvested from tissue culture flasks, re-suspended to a cell density of 200-300K/ml and mixed with recombinant BacMam virus carrying NKR gene in a virus/cell ratio of 1% (v/v). 10K-15K cells/well were then seeded in 384-well Greiner bio-one plate in culture medium (DMEM with 10% FBS), incubated overnight in 5% CO2 at 37° C. After aspirating the medium, cells were loaded 18-24 hr later with cytoplasmic calcium indicator Fluo-4 Calcium 3 dye (Molecular Devices Co.) in 30 uL/well buffer (Hank's balanced salts with 20 mM Hepes) and incubated in CO2 at 37° C. for 60 minutes. 10 uL/well assay buffer (Hank's balanced salts with 20 mM Hepes) containing different concentrations of compounds were then added to the cells for 30 minutes incubation at 37° C. Finally, 10 uL/well of NKR ligands in assay buffer containing 0.1% BSA was added to the cells and fluorescence signal read on a FLIPR system. Substance P, NKA and NKB peptides were used as the ligands for NK1, NK2 and NK3 receptor, respectively. IC50 values of each compound were determined by an 11-point 3×-dilution inhibition curve. The potency each antagonist (fpKi) was calculated from pIC50 by the Cheng-Prusoff equation using EC50 of ligand determined in a separate experiment.
(§2) The compounds of Example 11, Examples 2, 4 and 6 were tested in the NK functional potency assay.

A further assay addresses T2, human NK3 receptor (Homo sapiens, UniProt P29371).
T2 construct: expressed in transfected cells; host or cells: human U2OS cells transiently transduced with recombinant BacMam virus
T2 sequence (P29371 1-465): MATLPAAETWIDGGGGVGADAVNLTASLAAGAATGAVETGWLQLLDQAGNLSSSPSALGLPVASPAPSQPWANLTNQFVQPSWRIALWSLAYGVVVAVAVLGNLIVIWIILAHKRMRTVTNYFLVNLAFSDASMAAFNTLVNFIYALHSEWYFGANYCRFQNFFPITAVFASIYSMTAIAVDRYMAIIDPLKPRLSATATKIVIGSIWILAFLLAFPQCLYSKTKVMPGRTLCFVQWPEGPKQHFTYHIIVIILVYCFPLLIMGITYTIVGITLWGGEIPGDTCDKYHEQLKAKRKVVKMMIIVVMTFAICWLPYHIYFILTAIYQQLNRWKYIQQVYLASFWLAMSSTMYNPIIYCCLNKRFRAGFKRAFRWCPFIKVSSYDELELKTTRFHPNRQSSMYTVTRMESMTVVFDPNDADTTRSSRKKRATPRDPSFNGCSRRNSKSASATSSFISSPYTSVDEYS
Nature of the assay: NK functional potency, FLIPR calcium release in U2OS cells (NKB as ligand). In kind it is cell-based. The conditions noted are these: BacMam human NK3, average of at least two determinations, read-out: NK3 pKi (functional potency, fpKi) (converted).
Description: as §1, §2

Counter-ions that a name gives are not always drawn.

T1 sequence (Q5DUB1 whole entry): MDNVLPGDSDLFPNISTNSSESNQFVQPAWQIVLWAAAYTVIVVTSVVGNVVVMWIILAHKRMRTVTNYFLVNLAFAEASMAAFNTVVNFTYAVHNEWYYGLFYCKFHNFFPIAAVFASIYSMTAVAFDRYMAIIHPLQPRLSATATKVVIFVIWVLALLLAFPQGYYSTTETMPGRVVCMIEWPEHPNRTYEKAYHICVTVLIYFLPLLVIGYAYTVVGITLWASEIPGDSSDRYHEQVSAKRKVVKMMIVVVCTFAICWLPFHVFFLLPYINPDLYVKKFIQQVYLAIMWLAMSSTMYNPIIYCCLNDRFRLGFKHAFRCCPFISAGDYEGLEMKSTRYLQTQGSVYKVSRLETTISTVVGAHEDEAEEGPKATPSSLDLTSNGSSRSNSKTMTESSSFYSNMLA
human NK1 receptor, sequence (P25103 whole entry): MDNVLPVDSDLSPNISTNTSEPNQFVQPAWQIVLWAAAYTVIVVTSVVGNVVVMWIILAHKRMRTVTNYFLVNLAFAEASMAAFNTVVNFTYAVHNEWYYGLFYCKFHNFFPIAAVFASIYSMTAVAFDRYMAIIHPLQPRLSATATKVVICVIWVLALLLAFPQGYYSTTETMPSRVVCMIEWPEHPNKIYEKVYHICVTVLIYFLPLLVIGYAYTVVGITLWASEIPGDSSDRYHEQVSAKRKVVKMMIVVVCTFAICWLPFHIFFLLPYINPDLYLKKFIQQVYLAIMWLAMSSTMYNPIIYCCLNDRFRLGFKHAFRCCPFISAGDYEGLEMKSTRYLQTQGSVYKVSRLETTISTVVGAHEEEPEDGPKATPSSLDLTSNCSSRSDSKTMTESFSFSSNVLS

In the case of `Cc1cc(F)ccc1-c1cc([C@H]2CC[C@](C)(C(N)=O)N2)ncc1N(C)C(=O)C(C)(C)c1cc(C(F)(F)F)cc(C(F)(F)F)c1` [Example 11, (5R)-5-[5-[{2-[3,5-bis(trifluoromethyl)phenyl]-2-methylpropanoyl}(methyl)amino]-4-(4-fluoro-2-methylphenyl)-2-pyridinyl]-2-methyl-D-prolinamide bis-hydrochloride], the “GR73632-induced Foot Tapping behaviour” value at NK1 receptor (gerbil, 0.3, 1.0 and 3.0 mg/kg p.o (P<0.01)) is reported as “significantly attenuated”. For the same compound, on NK1 receptor (gerbil, p.o., GR73632 icv), the “ID50 as plasma concentration” value was “approximately 5 ng/ml plasma”. For the same compound, at NK1 receptor (po, gerbil, p.o., GR73632 icv, read-out: ID50, dose inhibiting by 50% the foot tapping induced by the NK1 agonist), the ED50 is approximately 0.2 mg/kg. For the same compound, the Ki on human NK1 receptor is 0.0794 nM; on human NK3 receptor, 31.6 nM.
